Patent US20250170236A1, “A NOVEL CATIONIC ADJUVANT COMPOSITION” (STATENS SERUM INSTITUT, priority 2022, published 2025)

Tested on: antigen-specific total IgG, IgG1 and IgG2c (H56 antigen)
Parameters: species or system CB6F1 mice
Details: mouse, in vivo

Substance: CpG ODN 2006 [CpG2006]
- increased antibody responses (effect seen with DDA/MMG/CpG2006): not observed
